Test results from patent publication US12285428B2 (IMBRIA PHARMACEUTICALS, INC., priority 2021, dated 2025).
Like-named read-outs stand apart in the source and are kept apart here. Each block holds one molecule with its values, some of them ahead of it.

How the values were obtained:
clinical [1] = conditions: in vivo, po
Protocol: Before dosing (on Days 1, 4, 7, and 10 in the single-dose MR part), subjects fasted overnight for at least 10 hours following a light supper on the evening before. Following dosing, subjects fasted for 4 hours until lunch. During fasting, fluids other than water were not allowed; however, water was not allowed from 2 hours predose until 1 hour postdose (apart from the water taken with the dose).
The AUCs were calculated using the linear up/log down trapezoidal rule, expressed in units of concentration×time.
Subjects with R2 below 0.80 or % AUCextra>20% were not excluded from the dose-proportionality evaluation based on AUC0-inf. A point estimate and 95% CI were produced for the slope. […] Since there were only 2 dose levels in the MAD part, no dose-proportionality analysis was performed for the MAD part.

[2] = FIH study, FE arm of SAD part: effect of food on plasma PK (150 mg IMB-1018972); conditions: human, in vivo
Protocol: Subjects assigned to Group A4 also participated in the FE arm and received the same single dose of IMB-1018972 or placebo under fed conditions (Food and Drug Administration [FDA]-defined high-fat breakfast after an overnight fast of at least 10 hours) in a second period at least 1 week after drug administration under fasted conditions in the SAD part.
Then, subjects received an FDA-defined high-fat breakfast that had to be consumed within 20 minutes. The entire breakfast had to be consumed by the subjects. […] Following dosing, subjects fasted for 4 hours until lunch. During fasting, fluids other than water were not allowed.
For the second period of Group A4 in the FE arm, and for Day 13 of the single-dose MR part, the FDA-defined high-fat breakfast of 918 kcal consisted of: • 2 fried eggs (in 15 g butter/margarine) (approximately 100 g) • 1 portion of bacon (40 g) (or brie 60+ for vegetarians) • 1 portion of fried potatoes (115 g) • 2 slices of (toasted) (wheat) bread (approximately 70 g) with 15 g margarine • 1 glass of whole milk (240 mL) The total of 918 kcal (vegetarian version 915 kcal) could be broken down as follows: • 39 g protein=156 kcal • 59 g fat=527 kcal • 59 g carbohydrates=235 kcal Blinding

[3] = human, in vivo
Protocol: Subjects received multiple oral doses of an IR formulation of IMB-1018972 or placebo once every 12 hours (q12h) for 14 consecutive days.
The doses were selected based upon the safety, tolerability, and PK data from the SAD part: • Group B1 multiple oral doses of an IR formulation of 150 mg IMB-1018972 (n=9) or matching placebo (n=3) twice daily (q12h) for 14 days; on Day 14 only a single morning dose was administered • Group B2: multiple oral doses of an IR formulation of 50 mg IMB-1018972 (n=9) or matching placebo (n=3) q12h for 14 days; on Day 14 only a single morning dose was administered
Before each morning dose, subjects fasted overnight for at least 10 hours following a snack on the evening before. On Days 1 and 14, subjects received a standardized breakfast that had to be consumed within 20 minutes. Dosing occurred at 30 minutes after the start of breakfast. Following dosing, subjects fasted for 4 hours until lunch. During fasting, fluids other than water were not allowed. On Days 2 to 13, breakfast was not standardized and was given within maximally 1 hour before dosing and consumed before dosing. No fasting after dosing was applicable on these days.
On all dosing days, an evening snack was given within maximally 1 hour before dosing and consumed before dosing.

[4] = human, in vivo, 200 mg
Protocol: On Day 13, subjects received a FDA-defined high-fat breakfast that had to be consumed within 20 minutes. […] Following dosing, subjects fasted for 4 hours until lunch. During fasting, fluids other than water were not allowed. Subjects were not allowed to lie down for 4 hours after dosing, except when required for assessments that needed to be performed.

[5] = human, in vivo; remark: listed apart in the source
[6] = human, in vivo, po
clinical [7] = conditions: human, in vivo, po
[8] = FIH study, SAD part: PK in urine

Time at which detectable plasma concentrations were generally seen (clinical [1]; human): 15 to 30 min
Tmax (clinical [1]; human): ~1 h
half-life (clinical [1]; human): 2.6 to 3 h
Tmax (clinical [1]; human, 50 mg): 0.5 to 1.02 h
Fashion of elimination (clinical [1]): biphasic
Cmax lower after high-fat breakfast relative to fasted conditions [2]: approximately 36%
Effect of food on AUC0-inf: estimate (fed relative to fasted) [2]: 1.12
Effect of food on AUC0-t: estimate (fed relative to fasted) [2]: 1.12
Effect of food on Cmax: estimate (fed relative to fasted) [2]: 0.64
Tmax ([2]; Median tmax): 1 h
Geometric mean Cmax higher on Day 1 after 150 mg fed in the MAD part than after single 150 mg fed in the SAD part [3]: 97%
Cmax higher after high-fat breakfast relative to fasted conditions [4]: approximately 42%
Effect of food on AUC0-inf: estimate (fed relative to fasted) [4]: 1.16
Effect of food on AUC0-t: estimate (fed relative to fasted) [4]: 1.16
Effect of food on Cmax: estimate (fed relative to fasted) [4]: 1.42
Primary clearance mechanism [5]: metabolism
AUC0-t higher after the 8-hour MR formulation than after the 4-hour MR formulation [6]: 6%
AUC0-t lower after the 8-hour MR formulation than after the 4-hour MR formulation [6]: 26%
CL renal (clinical [7]): 62.7 to 89.5 mL/min
SMILES: COc1ccc(CN2CCN(CCO)CC2)c(OC)c1OC [IMB-1028814, 2-[4-[(2,3,4-trimethoxyphenyl)methyl]piperazin-1-yl]ethanol]

Time at which detectable plasma concentrations were generally seen (clinical [1]; human): 15 to 30 min
Geometric mean Cmax lower on Day 1 after 150 mg fed in the MAD part than after single 150 mg fed in the SAD part [3]: 32%
AUC0-t higher after the 8-hour MR formulation than after the 4-hour MR formulation [6]: 4%
AUC0-t lower after the 8-hour MR formulation than after the 4-hour MR formulation [6]: 12%
Primary clearance mechanism ([8]; concluded from urinary excretion): renal excretion
Renal handling (CLR greater than glomerular filtration rate, 7.5 L/h) ([8]; in vivo): net tubular secretion
Arithmetic mean percent of the dose excreted in urine as trimetazidine ([8]; within 48 hours after single oral 35 mg trimetazidine): 54.47%
SMILES: COc1ccc(CN2CCNCC2)c(OC)c1OC [trimetazidine, reference compound]
